Measured values published in patent publication US6489297B1, “Vasoactive intestinal peptide analogs” (Dabur Research Foundation, priority 2000, dated 2002).
Where a SMILES comes first, the peptide text is derived from it. [ ]: non-standard residue; d: D form. dPhe(4-Cl) = N[C@H](Cc1ccc(Cl)cc1)C(=O)O; Dpg = CCCC(N)(CCC)C(=O)O; Ac5c = NC1(C(=O)O)CCCC1; Deg = CCC(N)(CC)C(=O)O; Aib = CC(C)(N)C(=O)O

Key:
Format in all cases: cell-based, human
Settings in all cases: 72 hours
[1] = system: SW620 (colon); experiment: MTT cytotoxicity assay, SW620 cells
Experimental: (§1) The cytotoxic activity of synthesized peptides was tested on […] human tumor cell lines namely PA-1 (ovary), SW620 (colon) HuTu80 (duodenum), L132 (lung), U87MG (glioblastoma), KB (oral), MIAPaCa2(pancreas), A549(non small cell lung) and HT-29(colon). The tumor cells were collected at exponential growth phase and resuspended in medium (1.5×10^6 cells/ml in RPMI 1640 containing 10% FBS). 150 μl of medium was added to the wells of a 96-well tissue culture plate (Nunc, Denmark) followed by 30 μl of cell suspension. The plate was left in incubator (37° C., 5% CO2) overnight. 20 μl of the peptide (100 pM to 1 uM concentration) was added to marked wells of the 96-well plate. Each concentration was plated in triplicates. 20 μl of medium alone was added to control wells while wells without cells served as blanks. A total volume of 200 μl was ensured in each well and plate was left in incubator (37° C., 5% CO2). After 72 hours of incubation an MTT assay was performed and percentage cytotoxicity was calculated with respect to control cells. Following Tables show the maximum cytotoxicity achieved on various cell lines.

[2] = system: PA-1 (ovary); experiment: MTT cytotoxicity assay, PA-1 cells
Experimental: as §1

[3] = system: U87MG (glioblastoma); experiment: MTT cytotoxicity assay, U87MG cells
Experimental: as §1

[4] = system: KB (oral); experiment: MTT cytotoxicity assay, KB cells
Experimental: as §1

[5] = system: HuTu80 (duodenum); experiment: MTT cytotoxicity assay, HuTu80 cells
Experimental: as §1

[6] = system: L132 (lung); experiment: MTT cytotoxicity assay, L132 cells
Experimental: as §1

Row | SMILES | Percentage cytotoxicity ([1]; SW620, 100 pM) [%] | Percentage cytotoxicity ([1]; SW620, 1 nM) [%] | Percentage cytotoxicity ([1]; SW620, 10 nM) [%] | Percentage cytotoxicity ([1]; SW620, 100 nM) [%] | Percentage cytotoxicity ([1]; SW620, 1 μM) [%] | Percentage cytotoxicity ([2]; PA1, 100 pM) [%] | Percentage cytotoxicity ([2]; PA1, 1 nM) [%] | Percentage cytotoxicity ([2]; PA1, 10 nM) [%] | Percentage cytotoxicity ([2]; PA1, 100 nM) [%] | Percentage cytotoxicity ([2]; PA1, 1 μM) [%] | Percentage cytotoxicity ([3]; 100 pM) [%] | Percentage cytotoxicity ([3]; 1 nM) [%] | Percentage cytotoxicity ([3]; 10 nM) [%] | Percentage cytotoxicity ([3]; 100 nM) [%] | Percentage cytotoxicity ([3]; 1 μM) [%] | Percentage cytotoxicity ([4]; 100 pM) [%] | Percentage cytotoxicity ([4]; 1 nM) [%] | Percentage cytotoxicity ([4]; 10 nM) [%] | Percentage cytotoxicity ([4]; 100 nM) [%] | Percentage cytotoxicity ([4]; 1 μM) [%] | also measured
1 | CC[C@H](C)[C@H](NC(=O)[C@H](CO)NC(=O)[C@H](CC(N)=O)NC(=O)[C@H](CC(C)C)NC(=O)[C@H](Cc1ccc(O)cc1)NC(=O)[C@H](CCCCN)NC(=O)[C@H](CCCCN)NC(=O)[C@@H](NC(=O)[C@H](C)NC(=O)[C@H](CC(C)C)NC(=O)[C@H](CCC(N)=O)NC(=O)[C@H](CCCCN)NC(=O)[C@H](CCCNC(=N)N)NC(=O)[C@H](CC(C)C)NC(=O)[C@H](CCCNC(=N)N)NC(=O)[C@@H](NC(=O)[C@H](Cc1ccc(O)cc1)NC(=O)[C@H](CC(N)=O)NC(=O)[C@H](CC(=O)O)NC(=O)[C@@H](NC(=O)[C@@H](Cc1ccc(Cl)cc1)NC(=O)[C@@H](NC(=O)C(CC)(CC)NC(=O)[C@H](CC(=O)O)NC(=O)[C@H](CO)NC(=O)[C@@H](N)Cc1c[nH]cn1)C(C)C)[C@@H](C)O)[C@@H](C)O)C(C)C)C(=O)N[C@@H](CC(C)C)C(=O)N[C@@H](CC(N)=O)C(N)=O [SEQ ID NO: 3] (H-HSD[Deg]V[dPhe(4-Cl)]TDNYTRLRKQLAVKKYLNSILN-NH2) | 15.9 ± 6.6 | 29 ± 5.6 | 27 ± 5.5 | 22 ± 7.3 | 16 ± 3.4 | 15 ± 4.5 | 29 ± 5.8 | 22 ± 4.5 | 23.5 ± 5.2 | 22.1 ± 4.5 | 11 ± 7.8 | 16 ± 6.6 | 28 ± 7.5 | 26 ± 6.7 | 25 ± 4.6 | 13 ± 8.5 | 24.5 ± 9.5 | 22 ± 8.2 | 18 ± 8.5 | 14 ± 3.4 | Percentage cytotoxicity ([5]; HuTu80, 100 pM): 14 ± 7.8%; Percentage cytotoxicity ([5]; HuTu80, 1 nM): 29 ± 6.2%; Percentage cytotoxicity ([5]; HuTu80, 10 nM): 28 ± 4.7%; Percentage cytotoxicity ([5]; HuTu80, 100 nM): 24 ± 7.8%; Percentage cytotoxicity ([5]; HuTu80, 1 μM): 14.5 ± 7.1%; Percentage cytotoxicity ([6]; L132, 100 pM): 14 ± 5.6%; Percentage cytotoxicity ([6]; L132, 1 nM): 23 ± 3.5%; Percentage cytotoxicity ([6]; L132, 10 nM): 29 ± 6.7%; Percentage cytotoxicity ([6]; L132, 100 nM): 26 ± 6.5%; Percentage cytotoxicity ([6]; L132, 1 μM): 14 ± 6.5%
2 | CC[C@H](C)[C@H](NC(=O)[C@H](CO)NC(=O)[C@H](CC(N)=O)NC(=O)[C@H](CC(C)C)NC(=O)[C@H](Cc1ccc(O)cc1)NC(=O)[C@H](CCCCN)NC(=O)[C@H](CCCCN)NC(=O)[C@@H](NC(=O)[C@H](C)NC(=O)[C@H](CC(C)C)NC(=O)[C@H](CCC(N)=O)NC(=O)[C@H](CCCCN)NC(=O)[C@H](CCCNC(=N)N)NC(=O)[C@H](CC(C)C)NC(=O)[C@H](CCCNC(=N)N)NC(=O)[C@@H](NC(=O)[C@H](Cc1ccc(O)cc1)NC(=O)[C@H](CC(N)=O)NC(=O)[C@H](CC(=O)O)NC(=O)[C@@H](NC(=O)[C@@H](Cc1ccc(Cl)cc1)NC(=O)[C@@H](NC(=O)C1(NC(=O)[C@H](CC(=O)O)NC(=O)[C@H](CO)NC(=O)[C@@H](N)Cc2c[nH]cn2)CCCC1)C(C)C)[C@@H](C)O)[C@@H](C)O)C(C)C)C(=O)N[C@@H](CC(C)C)C(=O)N[C@@H](CC(N)=O)C(N)=O [SEQ ID NO: 4] (H-HSD[Ac5c]V[dPhe(4-Cl)]TDNYTRLRKQLAVKKYLNSILN-NH2) | 16.9 ± 5.5 | 31 ± 6.5 | 28.5 ± 4.5 | 23 ± 6.7 | 15 ± 4.5 | 16.1 ± 0.0 | 30 ± 6.0 | 23 ± 3.5 | 22.3 ± 4.5 | 21 ± 5.5 | 10 ± 4.6 | 15 ± 7.8 | 29 ± 6.7 | 28 ± 7.7 | 27 ± 5.5 | 13 ± 8.0 | 30 ± 7.8 | 27 ± 7.8 | 26 ± 5.6 | 27 ± 4.3 | Percentage cytotoxicity ([5]; HuTu80, 100 pM): 11 ± 8.0%; Percentage cytotoxicity ([5]; HuTu80, 1 nM): 30 ± 7.0%; Percentage cytotoxicity ([5]; HuTu80, 10 nM): 27 ± 5.0%; Percentage cytotoxicity ([5]; HuTu80, 100 nM): 27 ± 7.9%; Percentage cytotoxicity ([5]; HuTu80, 1 μM): 15.5 ± 6.5%; Percentage cytotoxicity ([6]; L132, 100 pM): 11 ± 8.0%; Percentage cytotoxicity ([6]; L132, 1 nM): 27 ± 4.5%; Percentage cytotoxicity ([6]; L132, 10 nM): 30 ± 5.5%; Percentage cytotoxicity ([6]; L132, 100 nM): 28 ± 5.5%; Percentage cytotoxicity ([6]; L132, 1 μM): 13 ± 4.5%
3 | CCCC(CCC)(NC(=O)[C@H](CCC(N)=O)NC(=O)[C@H](CCCCN)NC(=O)[C@H](CCCNC(=N)N)NC(=O)[C@H](CC(C)C)NC(=O)[C@H](CCCNC(=N)N)NC(=O)[C@@H](NC(=O)[C@H](Cc1ccc(O)cc1)NC(=O)[C@H](CC(N)=O)NC(=O)[C@H](CC(=O)O)NC(=O)[C@@H](NC(=O)[C@H](Cc1ccccc1)NC(=O)[C@@H](NC(=O)C(C)(C)NC(=O)[C@H](CC(=O)O)NC(=O)[C@H](CO)NC(=O)[C@@H](N)Cc1c[nH]cn1)C(C)C)[C@@H](C)O)[C@@H](C)O)C(=O)N[C@@H](C)C(=O)N[C@H](C(=O)N[C@@H](CCCCN)C(=O)N[C@@H](CCCCN)C(=O)N[C@@H](Cc1ccc(O)cc1)C(=O)N[C@@H](CC(C)C)C(=O)N[C@@H](CC(N)=O)C(=O)N[C@@H](CO)C(=O)N[C@H](C(=O)N[C@@H](CC(C)C)C(=O)N[C@@H](CC(N)=O)C(N)=O)[C@@H](C)CC)C(C)C [SEQ ID NO: 9, His-Ser-Asp-Aib-Val-Phe-Thr-Asp-Asn-Tyr-Thr-Arg-Leu-Arg-Lys-Gln-Dpg-Ala-Val-Lys-Lys-Tyr-Leu-Asn-Ser-Ile-Leu-Asn-NH2] (H-HSD[Aib]VFTDNYTRLRKQ[Dpg]AVKKYLNSILN-NH2) | 15.9 ± 4.5 | 28 ± 5.0 | 27 ± 3.4 | 21 ± 3.6 | 16.7 ± 4.1 | 15.5 ± 3.3 | 27.8 ± 4.3 | 25.6 ± 4.5 | 17.4 ± 3.2 | 15.1 ± 2.3 | 11.5 ± 5.0 | 13.7 ± 3.6 | 26.7 ± 3.5 | 18.9 ± 6.5 | 12.5 ± 6.5 | 13 ± 5.0 | 21.5 ± 4.5 | 16.7 ± 3.2 | 16.7 ± 5.1 | 10.5 ± 6.5 | Percentage cytotoxicity ([5]; HuTu80, 100 pM): 14.6 ± 2.7%; Percentage cytotoxicity ([5]; HuTu80, 1 nM): 28.5 ± 3.2%; Percentage cytotoxicity ([5]; HuTu80, 10 nM): 26 ± 5.5%; Percentage cytotoxicity ([5]; HuTu80, 100 nM): 23 ± 6.0%; Percentage cytotoxicity ([5]; HuTu80, 1 μM): 14.6 ± 5.1%; Percentage cytotoxicity ([6]; L132, 100 pM): 17 ± 2.3%; Percentage cytotoxicity ([6]; L132, 1 nM): 20 ± 0.0%; Percentage cytotoxicity ([6]; L132, 10 nM): 18.9 ± 6.0%; Percentage cytotoxicity ([6]; L132, 100 nM): 17.5 ± 5.5%; Percentage cytotoxicity ([6]; L132, 1 μM): 13.6 ± 5.6%
